The record followed here is patent US9822127B2, “GAK modulators as antivirals” (Katholieke Universiteit Leuven, priority 2014, dated 2017).

The test system of one data set is HCV RNA replication. The experiment in a line: HCV RNA replication by luciferase assays. The following applies: 72 hours postelectroporation, daily treatment. Type of data set: cell-based.
A further data set has as its system Vero76. The following applies: African green monkey.
The next data set can be described thus: in vitro. The following applies: African green monkey.
The target in the next data set is T1, GAK (Homo sapiens, UniProt O14976).
T1 construct: made in house; host or cells: T7 phage grown in E. coli host derived from BL21
T1 sequence (O14976 1-1311): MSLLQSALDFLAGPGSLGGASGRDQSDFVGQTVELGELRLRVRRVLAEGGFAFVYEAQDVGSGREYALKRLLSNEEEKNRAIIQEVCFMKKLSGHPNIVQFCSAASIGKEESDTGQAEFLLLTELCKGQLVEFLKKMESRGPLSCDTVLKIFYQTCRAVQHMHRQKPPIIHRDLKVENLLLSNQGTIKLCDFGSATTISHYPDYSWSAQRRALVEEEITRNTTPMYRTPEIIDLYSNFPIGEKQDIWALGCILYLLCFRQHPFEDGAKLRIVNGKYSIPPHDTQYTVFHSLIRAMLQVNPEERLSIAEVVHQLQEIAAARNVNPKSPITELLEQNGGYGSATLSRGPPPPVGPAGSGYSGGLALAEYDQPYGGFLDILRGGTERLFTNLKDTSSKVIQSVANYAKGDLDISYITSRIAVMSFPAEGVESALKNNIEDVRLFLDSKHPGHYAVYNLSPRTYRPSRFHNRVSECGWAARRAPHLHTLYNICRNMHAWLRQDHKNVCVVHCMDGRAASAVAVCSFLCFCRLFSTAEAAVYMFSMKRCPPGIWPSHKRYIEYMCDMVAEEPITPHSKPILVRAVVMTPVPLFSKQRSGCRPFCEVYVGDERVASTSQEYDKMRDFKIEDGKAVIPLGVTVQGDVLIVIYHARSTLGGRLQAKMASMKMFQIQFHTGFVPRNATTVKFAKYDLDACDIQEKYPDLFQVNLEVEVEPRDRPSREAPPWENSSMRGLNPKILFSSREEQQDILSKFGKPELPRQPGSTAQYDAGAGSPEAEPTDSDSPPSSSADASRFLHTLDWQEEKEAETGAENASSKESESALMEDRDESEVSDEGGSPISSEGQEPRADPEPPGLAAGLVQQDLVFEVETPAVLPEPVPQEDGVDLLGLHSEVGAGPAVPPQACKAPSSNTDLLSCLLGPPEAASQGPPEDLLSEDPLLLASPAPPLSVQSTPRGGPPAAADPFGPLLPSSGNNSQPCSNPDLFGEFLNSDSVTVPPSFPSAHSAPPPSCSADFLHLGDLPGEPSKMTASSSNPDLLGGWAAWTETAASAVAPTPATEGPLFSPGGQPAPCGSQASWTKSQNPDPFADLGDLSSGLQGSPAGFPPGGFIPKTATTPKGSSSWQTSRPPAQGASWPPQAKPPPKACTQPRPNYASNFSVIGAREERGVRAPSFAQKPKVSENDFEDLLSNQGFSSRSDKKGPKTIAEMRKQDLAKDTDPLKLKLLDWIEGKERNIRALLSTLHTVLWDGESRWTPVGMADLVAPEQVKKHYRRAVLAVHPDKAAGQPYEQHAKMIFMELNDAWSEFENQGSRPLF
Briefly: GAK binding assay (T7 phage kinase competition binding). The following applies: for remaining binding at 10 µM: single concentration of 10 μM, lower numbers indicate stronger hits.

The subject of data set [1] is VSV-EB GFP-reporter virus (VSV bearing surface glycoprotein of EBOV). Type of data set: cell-based, Ebola virus.
A further data set relates to cell culture grown DENV. The experiment in a line: DENV infection of Huh-7 cells, Renilla luciferase assay. The following applies: Dengue virus, Huh-7, 72 h, read-out: EC50, DENV infection. Type of data set: cell-based.
The next data set has as its target EGFR (Homo sapiens, UniProt P00533). The experiment in a line: Affinity for EGFR / anti-EGFR activity. Type of data set: binding.
For data set [2], the system named is SARS Coronavirus (Virus strain: Urbani). Briefly: microbe, parasite or virus in culture. Type of data set: cell-based.
Data set [3] deals with Huh-7.5 cells. The experiment in a line: Viability assay, alamarBlue, Huh-7.5 cells. The following applies: HCVpp entry experiment.
Data set [4] relates to Huh-7.5 cells. The following applies: human.
Another data set deals with Huh-7 cells. The experiment in a line: Viability assay, alamarBlue, DENV infected Huh-7 cells. The following applies: 72 hours.
The test system of another data set is AP2M1 phosphorylation. The experiment in a line: AP2M1 phosphorylation by Western analysis in Huh-7.5 cells. The following applies: calyculin A, vs DMSO control. Type of data set: cell-based, human.
Where [5] appears, read: Severe acute respiratory syndrome coronavirus, Vero 76.

Converted amounts (≈) assume the structure as drawn. Where two headings read alike, the source gives them in different places.

EGFR, sequence (P00533 25-1210): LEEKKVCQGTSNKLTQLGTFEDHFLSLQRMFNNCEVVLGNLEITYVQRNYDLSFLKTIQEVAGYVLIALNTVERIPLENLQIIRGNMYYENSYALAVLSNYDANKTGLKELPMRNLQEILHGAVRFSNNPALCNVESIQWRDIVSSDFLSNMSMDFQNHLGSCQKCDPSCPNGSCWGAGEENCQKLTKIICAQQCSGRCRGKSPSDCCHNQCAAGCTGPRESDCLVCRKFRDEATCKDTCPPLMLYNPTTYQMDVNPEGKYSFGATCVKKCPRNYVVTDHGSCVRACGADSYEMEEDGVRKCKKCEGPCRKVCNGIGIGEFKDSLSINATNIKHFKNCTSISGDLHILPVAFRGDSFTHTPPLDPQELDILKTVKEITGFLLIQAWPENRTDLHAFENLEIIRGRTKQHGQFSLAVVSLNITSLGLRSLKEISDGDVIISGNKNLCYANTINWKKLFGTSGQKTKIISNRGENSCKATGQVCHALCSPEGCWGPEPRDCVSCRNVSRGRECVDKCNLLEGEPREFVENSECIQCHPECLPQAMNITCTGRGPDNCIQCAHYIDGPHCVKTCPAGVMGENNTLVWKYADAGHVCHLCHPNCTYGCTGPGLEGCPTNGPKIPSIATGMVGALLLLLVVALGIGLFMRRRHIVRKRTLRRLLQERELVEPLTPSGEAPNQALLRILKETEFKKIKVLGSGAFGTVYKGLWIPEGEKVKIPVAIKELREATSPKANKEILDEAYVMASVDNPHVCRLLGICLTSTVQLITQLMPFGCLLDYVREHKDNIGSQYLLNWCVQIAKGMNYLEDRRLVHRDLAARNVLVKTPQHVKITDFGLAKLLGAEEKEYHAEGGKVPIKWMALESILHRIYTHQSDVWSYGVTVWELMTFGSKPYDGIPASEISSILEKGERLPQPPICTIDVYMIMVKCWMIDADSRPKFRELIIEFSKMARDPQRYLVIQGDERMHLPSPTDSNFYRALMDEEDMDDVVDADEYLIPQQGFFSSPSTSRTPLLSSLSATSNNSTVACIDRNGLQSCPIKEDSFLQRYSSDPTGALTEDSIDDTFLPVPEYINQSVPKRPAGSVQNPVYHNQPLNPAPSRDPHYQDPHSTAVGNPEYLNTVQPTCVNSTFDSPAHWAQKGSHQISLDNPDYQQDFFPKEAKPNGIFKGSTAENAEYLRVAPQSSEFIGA

In general, Kd refers to a measure of binding affinity in units of concentration. In general, EC50 refers to the concentration giving half of the maximal effect. As for `COc1cc(-c2cnc3c(N4CCOCC4)snc3c2)ccc1N` [Example 50, 2-Methoxy-4-(3-morpholinoisothiazolo[4,3-]pyridin-6-yl)aniline], in the data set on HCV RNA replication, the “effect on HCV RNA replication” value is “did not affect HCV RNA replication”. For the same compound, the CC50 in the data set with Vero76 was found to be 13 µg/mL (≈ 38 µM); in “in vitro”, 15 µg/mL (≈ 43.8 µM). Besides, at GAK, the dissociation constant Kd was found to be 8.9 nM. Further, the % of control binding at 10 µM on GAK (read-out: % Ctrl) was 0%. Also, in data set [1], the “effect on VSV-EB infection, treatment alone” value is “minimal inhibition of infection”. Also, the half-maximal effective concentration (EC50) turned out to be 2600 nM in the data set with cell culture grown DENV, 3.2 µg/mL (≈ 9.35 µM) in data set [2] and 2.4 µg/mL (≈ 7.01 µM) in data set [2] (setting [5]). Moreover, the anti-EGFR activity result on EGFR is reported as “lack anti-EGFR activity”.
Consider `COc1ccc(-c2cnc3c(N4CCC(O)CC4)snc3c2)cc1OC` [Example 66, 1-(6-(3,4-dimethoxyphenyl)-isothiazolo[4,3-b]pyridin-3-yl)piperidin-4-ol], for which the CC50 is >100 µg/mL in the data set with Vero76 and > 100 µg/mL in the data set “in vitro”. Further, the values for the EC50 in data set [2] and in data set [2] (setting [5]) were 38 µg/mL (≈ 102 µM) and 50 µg/mL (≈ 135 µM), respectively.
For the compound `COc1ccc(-c2cnc3c(NCCc4ccccc4)snc3c2)cc1OC` [Example 74, 6-(3,4-dimethoxyphenyl)-N-phenethylisothiazolo[4,3-b]pyridin-3-amine], the results for the CC50 in the data set on Vero76 and in the data set “in vitro” were >100 µg/mL and > 100 µg/mL, respectively. In addition, the remaining binding at 10 µM on GAK (read-out: % Ctrl) amounted to 81%. Further, the EC50 was determined as 5.8 µg/mL (≈ 14.8 µM) in data set [2] and 4.5 µg/mL (≈ 11.5 µM) in data set [2] (setting [5]).
The like results for `c1cc(-c2cnc3c(N4CCOCC4)snc3c2)co1` [Example 52, 4-(6-(Furan-3-yl)isothiazolo[4,3-b]pyridin-3-yl)morpholine] were, in that order, >100 µg/mL, > 100 µg/mL, 0.15%, 49 µg/mL (≈ 171 µM) and 44 µg/mL (≈ 153 µM).
For `COc1cc(-c2cnc3c(N4CCOCC4)snc3c2)cc(OC)c1OC` [Example 49, 4-(6-(3,4,5-Trimethoxyphenyl)isothiazolo[4,3-b]pyridin-3-yl)morpholine], the “effect on cellular viability” value with Huh-7.5 cells [3] and with Huh-7 cells was “minimal effect on cellular viability” throughout. In addition, in the data set on HCV RNA replication, the “effect on HCV RNA replication” value is “did not affect HCV RNA replication”. Also, the CC50 in the data set on Huh-7.5 cells [4] was found to be 23300 ± 3400 nM; with Vero76 it was 50 µg/mL (≈ 129 µM); in the data set “in vitro”, 34 µg/mL (≈ 87.8 µM). At GAK, this compound displayed a dissociation constant Kd of 8.3 nM. At GAK (read-out: % Ctrl), the remaining binding at 10 µM is 0%. Besides, the values for the EC50 (in the data set on cell culture grown DENV; in data set [2]; in data set [2] (setting [5])) were 800 nM, 0.77 µg/mL (≈ 1.99 µM) and 1.2 µg/mL (≈ 3.1 µM), respectively. Besides, in the data set on AP2M1 phosphorylation, the “p-AP2M1 to AP2M1 ratios” value was “reduced by either 49 or 50 in a dose-dependent manner”. The anti-EGFR activity result at EGFR is “lack anti-EGFR activity”.
